Data on one compound can be found in patent US8435562B2 (XenoPort, Inc., priority 2009, dated 2013).

This data set can be described thus: Powder X-ray diffraction analysis of anhydrous-to-hydrate form conversion (granules, tablets). It is filed as physicochemical. The protocol: Anhydrous (2R)-2-phenylcarbonyloxypropyl (2S)-2-amino-3-(3,4-dihydroxyphenyl)propanoate mesylate (138.6 g) and hydroxypropylmethyl cellulose (1.4 g) (Methocer HPMC E4M, Dow Chemical) were weighed and sieved through an 18-mesh screen. The screened materials were placed into a high shear wet granulator (KG-5 high sheer blender, 5 L bowl, Key International) and pre-blended for 2 min. […] The material was blended for ca. 10-20 min at an impeller speed of 250 rpm and a chopper speed of 2,000 rpm, and a water spray rate of 2 g/min. After granulation the wet granules were milled through a 16-mesh screen with a brush. The milled wet granules were placed in a dryer (UniGlatt Fluid Bed Dryer, Glatt GmbH) and dried for 24 min at an inlet temperature of 65° C. with airflow adjusted at 8-10 SCFM. The dried granules were milled by manually pressing the granules through a screen.
Powder X-ray diffraction (PXRD) analysis was performed using a PANalytical X′Pert Pro X-ray diffractometer. The X-ray source was Cu kα1 with output voltage of 45 kV and current of 40 mA. The instrument employed para-focusing Bragg-Brentano geometry with incident divergence and scattering slits set at 1/16° and ⅛°, respectively. Soller slits with a 0.04-mm radius were used for both the incident and diffracted beams to remove axial divergence. Powder samples (9-12 mg) were gently pressed onto a single crystal silicon sample holder to form a smooth surface, and samples were spun at 8 sec/revolution throughout the data acquisition process. The samples were scanned from 2° to 40°(2θ°) with a step size of 0.017° (2θ angle) and a scan speed of 0.067°/sec. Data acquisition was controlled and analyzed with X′Pert Data Collector Software (version 2.2d) and X′Pert Data Viewer (version 1.2c), respectively.

Consider `CS(=O)(=O)O.C[C@H](COC(=O)[C@@H](N)Cc1ccc(O)c(O)c1)OC(=O)c1ccccc1` [compound 1, (2R)-2-Phenylcarbonyloxypropyl (2S)-2-amino-3-(3,4-dihydroxyphenyl)propanoate mesylate], for which the “Crystal form by PXRD after high shear wet granulation” value was “did not transform to the hydrate” (with 1% sodium lauryl sulfate); “a combination of the anhydrous and hydrated forms” (without sodium lauryl sulfate, 7 wt-% water); “predominantly crystalline (2R)-2-phenylcarbonyloxypropyl (2S)-2-amino-3-(3,4-dihydroxyphenyl)propanoate mesylate, hydrate” (without sodium lauryl sulfate, 15 wt-% water); “characteristic of the hydrated form” (without sodium lauryl sulfate, water content of 9 wt-% and 15 wt-% (FIG. 3 patterns B and C)).
